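A five-concentration, 48-hour dose response in 96-well plates underlies each endpoint, interpolated linearly between surrounding concentrations. The concentration for 50% growth inhibition is given as GI50. The concentration for full growth arrest is given as TGI.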
Key:
Assay in all cases: NCI-60 cell line screen, 48 h
SW-620 colon = tested on: SW-620 colon
SN12C renal = tested on: SN12C renal
UACC-257 melanoma = tested on: UACC-257 melanoma
HL-60(TB) leukemia = tested on: HL-60(TB) leukemia
T-47D breast = tested on: T-47D breast
SF-539 CNS = tested on: SF-539 CNS
PC-3 prostate = tested on: PC-3 prostate
HS 578T breast = tested on: HS 578T breast
EKVX NSCLC = tested on: EKVX NSCLC
MDA-MB-435 = tested on: MDA-MB-435
HCT-15 colon = tested on: HCT-15 colon
MALME-3M melanoma = tested on: MALME-3M melanoma
NCI-H23 lung = tested on: NCI-H23 lung
KM12 colon = tested on: KM12 colon
UO-31 renal = tested on: UO-31 renal
SF-268 CNS = tested on: SF-268 CNS
HCT-116 colon = tested on: HCT-116 colon
U251 CNS = tested on: U251 CNS
COLO 205 colon = tested on: COLO 205 colon
MCF7 breast = tested on: MCF7 breast
DU-145 prostate = tested on: DU-145 prostate
NCI/ADR-RES ovarian = tested on: NCI/ADR-RES ovarian
HT29 colon = tested on: HT29 colon
MDA-MB-231 breast = tested on: MDA-MB-231 breast
RXF 393 renal = tested on: RXF 393 renal
UACC-62 melanoma = tested on: UACC-62 melanoma
TK-10 renal = tested on: TK-10 renal
OVCAR-5 ovarian = tested on: OVCAR-5 ovarian
BT-549 breast = tested on: BT-549 breast
HOP-62 NSCLC = tested on: HOP-62 NSCLC
SF-295 CNS = tested on: SF-295 CNS
OVCAR-4 ovarian = tested on: OVCAR-4 ovarian
SR leukemia = tested on: SR leukemia
OVCAR-8 ovarian = tested on: OVCAR-8 ovarian
LOX IMVI melanoma = tested on: LOX IMVI melanoma
HCC-2998 colon = tested on: HCC-2998 colon
M14 melanoma = tested on: M14 melanoma
SK-MEL-5 melanoma = tested on: SK-MEL-5 melanoma
IGROV1 ovarian = tested on: IGROV1 ovarian
ACHN renal = tested on: ACHN renal
HOP-92 NSCLC = tested on: HOP-92 NSCLC
SK-MEL-2 melanoma = tested on: SK-MEL-2 melanoma
NCI-H522 lung = tested on: NCI-H522 lung
NCI-H226 lung = tested on: NCI-H226 lung
SK-MEL-28 melanoma = tested on: SK-MEL-28 melanoma
MOLT-4 leukemia = tested on: MOLT-4 leukemia
786-0 renal = tested on: 786-0 renal
OVCAR-3 ovarian = tested on: OVCAR-3 ovarian
SNB-75 CNS = tested on: SNB-75 CNS
CAKI-1 renal = tested on: CAKI-1 renal
A549 NSCLC = tested on: A549 NSCLC
SNB-19 CNS = tested on: SNB-19 CNS
CCRF-CEM leukemia = tested on: CCRF-CEM leukemia
RPMI-8226 leukemia = tested on: RPMI-8226 leukemia
NCI-H460 lung = tested on: NCI-H460 lung
SK-OV-3 ovarian = tested on: SK-OV-3 ovarian
K-562 leukemia = tested on: K-562 leukemia

CO[C@H]1CC(c2ccc[nH]2)=N[C@]12O[C@@H](C)C[C@@H]1CCCCCCCc3ccc([nH]3)[C@H]12
GI50 (SW-620 colon): 1050 nM
TGI (SW-620 colon): 7960 nM
GI50 (SN12C renal): 1490 nM
TGI (SN12C renal): 18900 nM
GI50 (UACC-257 melanoma): 1330 nM
TGI (UACC-257 melanoma): 7630 nM
GI50 (HL-60(TB) leukemia): 1240 nM
TGI (HL-60(TB) leukemia): 4970 nM
GI50 (T-47D breast): 732 nM
TGI (T-47D breast): > 19200 nM
GI50 (SF-539 CNS): 1010 nM
TGI (SF-539 CNS): 9260 nM
GI50 (PC-3 prostate): 780 nM
TGI (PC-3 prostate): 20700 nM
GI50 (HS 578T breast): 888 nM
TGI (HS 578T breast): 7110 nM
GI50 (EKVX NSCLC): 975 nM
TGI (EKVX NSCLC): 7300 nM
GI50 (MDA-MB-435): 1100 nM
TGI (MDA-MB-435): 4290 nM
GI50 (HCT-15 colon): 851 nM
TGI (HCT-15 colon): 8510 nM
GI50 (MALME-3M melanoma): 886 nM
TGI (MALME-3M melanoma): 3620 nM
GI50 (NCI-H23 lung): 1210 nM
TGI (NCI-H23 lung): 8030 nM
GI50 (KM12 colon): 933 nM
TGI (KM12 colon): 6150 nM
GI50 (UO-31 renal): 932 nM
TGI (UO-31 renal): 4200 nM
GI50 (SF-268 CNS): 1650 nM
TGI (SF-268 CNS): > 32200 nM
GI50 (HCT-116 colon): 711 nM
TGI (HCT-116 colon): 3480 nM
GI50 (U251 CNS): 1140 nM
TGI (U251 CNS): 17300 nM
GI50 (COLO 205 colon): 794 nM
TGI (COLO 205 colon): 4680 nM
GI50 (MCF7 breast): 968 nM
TGI (MCF7 breast): > 16700 nM
GI50 (DU-145 prostate): 1490 nM
TGI (DU-145 prostate): > 23100 nM
GI50 (NCI/ADR-RES ovarian): 1100 nM
TGI (NCI/ADR-RES ovarian): 9900 nM
GI50 (HT29 colon): 1040 nM
TGI (HT29 colon): > 33300 nM
GI50 (MDA-MB-231 breast): 853 nM
TGI (MDA-MB-231 breast): 5230 nM
GI50 (RXF 393 renal): 807 nM
TGI (RXF 393 renal): 7530 nM
GI50 (UACC-62 melanoma): 659 nM
TGI (UACC-62 melanoma): 1450 nM
GI50 (TK-10 renal): 2330 nM
TGI (TK-10 renal): > 29600 nM
GI50 (OVCAR-5 ovarian): 1250 nM
TGI (OVCAR-5 ovarian): 6220 nM
GI50 (BT-549 breast): 1210 nM
TGI (BT-549 breast): 9310 nM
GI50 (HOP-62 NSCLC): 1350 nM
TGI (HOP-62 NSCLC): 14900 nM
GI50 (SF-295 CNS): 1390 nM
TGI (SF-295 CNS): 7920 nM
GI50 (OVCAR-4 ovarian): 508 nM
TGI (OVCAR-4 ovarian): 22200 nM
GI50 (SR leukemia): 720 nM
TGI (SR leukemia): 4930 nM
GI50 (OVCAR-8 ovarian): 1170 nM
TGI (OVCAR-8 ovarian): > 33300 nM
GI50 (LOX IMVI melanoma): 520 nM
TGI (LOX IMVI melanoma): 1260 nM
GI50 (HCC-2998 colon): 814 nM
TGI (HCC-2998 colon): 5540 nM
GI50 (M14 melanoma): 898 nM
TGI (M14 melanoma): 3350 nM
GI50 (SK-MEL-5 melanoma): 527 nM
TGI (SK-MEL-5 melanoma): 1170 nM
GI50 (IGROV1 ovarian): 1380 nM
TGI (IGROV1 ovarian): 10800 nM
GI50 (ACHN renal): 1220 nM
TGI (ACHN renal): 4760 nM
GI50 (HOP-92 NSCLC): 800 nM
TGI (HOP-92 NSCLC): 4810 nM
GI50 (SK-MEL-2 melanoma): 1030 nM
TGI (SK-MEL-2 melanoma): 4210 nM
GI50 (NCI-H522 lung): 1290 nM
TGI (NCI-H522 lung): 9980 nM
GI50 (NCI-H226 lung): 929 nM
TGI (NCI-H226 lung): 5250 nM
GI50 (SK-MEL-28 melanoma): 1920 nM
TGI (SK-MEL-28 melanoma): 8260 nM
GI50 (MOLT-4 leukemia): 1010 nM
TGI (MOLT-4 leukemia): 13600 nM
GI50 (786-0 renal): 1250 nM
TGI (786-0 renal): 6530 nM
GI50 (OVCAR-3 ovarian): 942 nM
TGI (OVCAR-3 ovarian): 5620 nM
GI50 (SNB-75 CNS): 825 nM
TGI (SNB-75 CNS): 2790 nM
GI50 (CAKI-1 renal): 1180 nM
TGI (CAKI-1 renal): 11300 nM
GI50 (A549 NSCLC): 1040 nM
TGI (A549 NSCLC): 7310 nM
GI50 (SNB-19 CNS): 3410 nM
TGI (SNB-19 CNS): > 33300 nM
GI50 (CCRF-CEM leukemia): 704 nM
TGI (CCRF-CEM leukemia): > 30400 nM
GI50 (RPMI-8226 leukemia): 693 nM
TGI (RPMI-8226 leukemia): 2960 nM
GI50 (NCI-H460 lung): 813 nM
TGI (NCI-H460 lung): 6070 nM
GI50 (SK-OV-3 ovarian): 4410 nM
TGI (SK-OV-3 ovarian): 18900 nM
GI50 (K-562 leukemia): 821 nM
TGI (K-562 leukemia): > 24200 nM

From PubChem BioAssay (NCI)
